Our source for the Kd values is ChEMBL document CHEMBL1130785, “A labeled guanidine ligand for studying sweet taste” (Bioorg Med Chem Lett, 1998).

The test can be described thus: The compound was evaluated for binding affinity towards monoclonal antibody NC10.14 using competitive radioimmunoassay.

As a reminder, the Kd is the concentration at which binding is half-saturated. The low end stands for a tighter complex, the high end for a looser complex. Turning to `N#Cc1ccc(N/C(=N\CC(=O)O)NC(c2ccccc2)c2ccccc2)cc1`, the Kd amounted to 18 nM.
